Reference: the supplement of paper PMC10307832

What was measured:
Test in all cases: relative viability (nuclei count vs DMSO), 5 days (fraction); higher = more cells survive
Ponatinib + Vorinostat = compound: Cc1ccc(C(=O)Nc2ccc(CN3CCN(C)CC3)c(C(F)(F)F)c2)cc1C#Cc1cnc2cccnn12 [Ponatinib] + O=C(CCCCCCC(=O)Nc1ccccc1)NO [Vorinostat] (partner 1 µM)
Method in brief: (§1)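 The day after seeding in 1536-well plates, lung cancer cell lines were treated by pin tool with a single drug, or with a fixed anchor-drug dose together with five library-drug doses (not always all listed) in √10 steps. After 5 days, a combined fix-and-stain solution (final 0.05% Triton X-100, 1% formaldehyde, 1 ug/ml Hoechst) was added. Nuclei counted on 4× images gave relative viability as treated counts over vehicle counts, reported as the median of duplicate plates.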

Pazopanib + Dasatinib = compound: Cc1ccc(Nc2nccc(N(C)c3ccc4c(C)n(C)nc4c3)n2)cc1S(N)(=O)=O [Pazopanib] + Cc1nc(Nc2ncc(C(=O)Nc3c(C)cccc3Cl)s2)cc(N2CCN(CCO)CC2)n1 [Dasatinib] (partner 0.075 µM)
Method in brief: as §1

Pazopanib + Decitabine = compound: Cc1ccc(Nc2nccc(N(C)c3ccc4c(C)n(C)nc4c3)n2)cc1S(N)(=O)=O [Pazopanib] + Nc1ncn([C@H]2C[C@H](O)[C@@H](CO)O2)c(=O)n1 [Decitabine] (partner 2 µM)
Method in brief: as §1

Pazopanib + Vorinostat = compound: Cc1ccc(Nc2nccc(N(C)c3ccc4c(C)n(C)nc4c3)n2)cc1S(N)(=O)=O [Pazopanib] + O=C(CCCCCCC(=O)Nc1ccccc1)NO [Vorinostat] (partner 1 µM)
Method in brief: as §1

| Cell Line | relative viability (Ponatinib + Vorinostat; first compound 0.002 µM) | relative viability (Ponatinib + Vorinostat; first compound 0.006325 µM) | relative viability (Ponatinib + Vorinostat; first compound 0.06325 µM) | relative viability (Ponatinib + Vorinostat; first compound 0.2 µM) | relative viability (Pazopanib + Dasatinib; first compound 0.01 µM) | relative viability (Pazopanib + Dasatinib; first compound 0.03162 µM) | relative viability (Pazopanib + Dasatinib; first compound 0.1 µM) | relative viability (Pazopanib + Dasatinib; first compound 0.3162 µM) | relative viability (Pazopanib + Dasatinib; first compound 1 µM) | relative viability (Pazopanib + Decitabine; first compound 0.01 µM) | relative viability (Pazopanib + Decitabine; first compound 0.03162 µM) | relative viability (Pazopanib + Decitabine; first compound 0.1 µM) | relative viability (Pazopanib + Decitabine; first compound 0.3162 µM) | relative viability (Pazopanib + Decitabine; first compound 1 µM) | relative viability (Pazopanib + Vorinostat; first compound 0.01 µM) | relative viability (Pazopanib + Vorinostat; first compound 0.03162 µM) | relative viability (Pazopanib + Vorinostat; first compound 0.1 µM) | relative viability (Pazopanib + Vorinostat; first compound 0.3162 µM) | relative viability (Pazopanib + Vorinostat; first compound 1 µM) |
| --- | --- | --- | --- | --- | --- | --- | --- | --- | --- | --- | --- | --- | --- | --- | --- | --- | --- | --- | --- |
| LXF-289 | 0.646 | 0.746 | 0.732 | 0.793 | 0.224 | 0.236 | 0.19 | 0.156 | 0.242 | 0.395 | 0.351 | 0.39 | 0.373 | 0.381 | 0.767 | 0.798 | 0.779 | 0.732 | 0.812 |
| ABC-1 | 0.786 | 1.06 | 0.988 | 0.994 | 0.481 | 0.635 | – | 0.551 | 0.637 | 1.01 | 1.12 | 1 | 1.31 | 0.807 | 1.04 | 1.38 | 0.731 | 1.2 | 1.27 |
| NCI-H661 | 0.735 | 0.775 | 0.831 | 0.819 | 0.908 | 0.894 | 0.815 | 0.931 | 1.15 | 0.498 | 0.576 | 0.578 | 0.598 | 0.596 | 0.773 | 0.808 | 0.875 | 0.759 | 0.802 |
| NCI-H1650 | 0.642 | 0.539 | 0.654 | 0.65 | 0.301 | 0.375 | 0.381 | 0.319 | 0.403 | 0.431 | 0.419 | 0.464 | 0.405 | 0.603 | 0.654 | 0.615 | 0.605 | 0.59 | 0.704 |
| NCI-H2085 | 0.768 | 0.877 | 1.02 | 0.825 | 0.219 | 0.255 | 0.225 | 0.241 | 0.265 | 0.573 | 0.508 | 0.555 | 0.602 | 0.581 | 0.674 | 0.849 | 0.758 | 0.838 | 0.86 |
| NCI-H1944 | 0.519 | 0.637 | 0.693 | 0.679 | – | 0.226 | 0.226 | 0.237 | 0.247 | 0.463 | 0.424 | 0.424 | 0.427 | 0.467 | 0.487 | 0.557 | 0.583 | 0.604 | 0.648 |
| LC-2-ad | 0.653 | 0.667 | 0.626 | 0.591 | 0.445 | 0.555 | 0.575 | 0.792 | 0.535 | 0.88 | 0.644 | 0.915 | 0.85 | 0.776 | 0.697 | 0.719 | 0.732 | 0.771 | 0.732 |
| COR-L 105 | 0.802 | 0.953 | 0.899 | 0.837 | 0.351 | 0.296 | 0.327 | 0.453 | 0.406 | 0.746 | 0.576 | 0.737 | 0.677 | 0.719 | 0.867 | 0.959 | 0.765 | 0.878 | 0.882 |
| NCI-H1355 | 0.564 | 0.604 | 0.677 | 0.615 | 0.443 | 0.549 | 0.773 | 0.639 | 0.686 | 0.355 | 0.314 | 0.367 | 0.358 | 0.386 | 0.488 | 0.632 | 0.696 | 0.643 | 0.651 |
| H3255 | 0.613 | 0.85 | 0.75 | 0.782 | 0.349 | 0.397 | 0.295 | 0.286 | 0.454 | 0.42 | 0.618 | 0.602 | 0.718 | 0.668 | 0.709 | 0.841 | 0.701 | 0.901 | 0.793 |
| NCI-H1993 | 0.783 | 1.19 | 0.962 | 0.734 | – | 0.6 | 0.542 | 0.588 | 0.582 | – | 0.493 | 0.607 | 0.678 | 0.59 | – | 0.851 | 0.832 | 0.741 | 0.763 |
| NCI-H1734 | 0.763 | 0.777 | 0.914 | 0.773 | 0.387 | 0.471 | 0.458 | 0.459 | 0.478 | 0.498 | 0.492 | 0.461 | 0.532 | 0.512 | 0.66 | 0.864 | 0.882 | 0.942 | 0.875 |
| HOP-62 | 0.516 | 0.509 | 0.682 | 0.597 | 0.554 | 0.713 | 0.681 | 0.659 | 0.718 | 0.208 | 0.238 | 0.228 | 0.288 | 0.196 | 0.494 | 0.584 | 0.474 | 0.656 | 0.496 |
| LOU-NH91 | 0.889 | 0.988 | 1.01 | 0.873 | 0.49 | 0.523 | 0.559 | 0.603 | 0.565 | 0.808 | 0.78 | 0.828 | 0.828 | 0.769 | 0.873 | 0.964 | 0.917 | 1.02 | 0.942 |
| ChaGo-K-1 | 0.699 | 0.732 | 0.664 | 0.648 | 0.554 | 0.622 | 0.591 | 0.515 | 0.7 | 0.541 | 0.482 | 0.516 | 0.528 | 0.535 | 0.743 | 0.772 | 0.756 | 0.757 | 0.727 |
| PC-3 [JPC-3] | – | 0.703 | 0.868 | 0.898 | 0.991 | 0.939 | 1.11 | 0.939 | 0.983 | – | 0.885 | 0.773 | 0.916 | 0.787 | – | 0.79 | 0.597 | 0.973 | 0.93 |
| NCI-H1437 | 0.859 | 0.858 | 0.938 | 0.901 | 0.399 | 0.465 | 0.353 | 0.396 | 0.723 | 0.541 | 0.611 | 0.626 | 0.602 | 0.567 | 0.833 | 0.778 | 0.82 | 0.762 | 0.75 |
| NCI-H520 | 0.686 | 0.59 | 0.663 | 0.499 | 0.142 | 0.183 | 0.213 | 0.145 | 0.25 | 0.48 | 0.471 | 0.569 | 0.509 | 0.572 | 0.678 | 0.717 | 0.742 | 0.581 | 0.549 |
| NCI-H1666 | 0.998 | 1.01 | 1.08 | 0.89 | 0.854 | 0.833 | 0.801 | 0.864 | 0.772 | 0.703 | 0.716 | 0.636 | 0.76 | 0.765 | 1.15 | 1.09 | 0.993 | 1.06 | 0.909 |
| SW 900 | 0.382 | 0.516 | 0.591 | 0.525 | 0.539 | 0.731 | 0.596 | 0.66 | 0.543 | 0.516 | 0.453 | – | 0.462 | 0.505 | 0.465 | 0.33 | – | 0.545 | 0.53 |
| NCI-H1651 | 0.507 | 0.579 | 0.602 | 0.601 | 0.371 | 0.46 | 0.397 | 0.436 | 0.5 | 0.543 | 0.644 | 0.644 | 0.552 | 0.656 | 0.536 | 0.588 | 0.621 | 0.534 | 0.637 |
| NCI-H1755 | 0.685 | 0.777 | 0.72 | 0.82 | 0.333 | 0.398 | 0.433 | 0.384 | 0.411 | 0.718 | 0.709 | 0.742 | 0.773 | 0.783 | 0.65 | 0.744 | 0.876 | 0.812 | 0.75 |
| NCI-H727 | 1.08 | 1.09 | 1.21 | 1.09 | 0.402 | 0.378 | 0.394 | 0.444 | 0.413 | 0.724 | – | 0.879 | 0.885 | 1.02 | 1.17 | – | 1.06 | 1.15 | 1.08 |
| HARA | – | 0.491 | 0.548 | 0.46 | 0.23 | 0.341 | 0.241 | 0.248 | 0.337 | 0.484 | 0.615 | 0.6 | 0.543 | 0.602 | 0.475 | 0.424 | 0.605 | 0.438 | 0.605 |
| NCI-H647 | 0.381 | 0.588 | 0.686 | 0.513 | 0.135 | 0.21 | 0.224 | 0.243 | 0.25 | 0.402 | 0.408 | 0.344 | 0.487 | 0.295 | 0.443 | 0.59 | 0.706 | 0.394 | 0.421 |
| NCI-H23 | 0.504 | 0.588 | 0.607 | 0.634 | 0.722 | 0.852 | 0.94 | 0.869 | 0.894 | 0.308 | 0.309 | 0.341 | 0.376 | 0.335 | 0.431 | 0.641 | 0.628 | 0.661 | 0.782 |
| LCLC-97TM1 | 0.806 | 0.748 | 0.665 | 0.535 | 0.771 | 0.854 | 0.888 | 0.847 | 0.785 | – | 0.229 | 0.247 | 0.223 | 0.237 | – | 0.877 | 0.58 | 0.797 | 0.736 |
| EPLC-272H | 0.461 | 0.525 | 0.579 | 0.545 | – | 0.321 | 0.369 | 0.376 | 0.251 | – | 0.336 | 0.353 | 0.337 | 0.369 | 0.389 | 0.432 | 0.682 | 0.652 | 0.535 |
| NCI-H2342 | 0.676 | 0.779 | 0.886 | 0.731 | 0.303 | 0.339 | 0.305 | 0.297 | 0.278 | 0.678 | 0.684 | 0.918 | 0.612 | 0.697 | 0.671 | 0.789 | 0.704 | 0.762 | 0.687 |
